Measurements from paper PMC11948302, “OATP1B-type Transport Function Is a Determinant of Aromatase Inhibitor–Associated Arthralgia Susceptibility” (Cancer Research Communications, 2025).
Marks after values point to notes of the source that are not given here. Values belong to the molecule of their own block, whether it stands above or below them.

What was measured:
[1] = In vivo pharmacokinetic studies in mice (plasma and liver, LC/MS-MS); details: for AUC fold change vs. WT: 95% confidence interval; for AUC(0-t) / Cmax: female, FVB, mouse, plasma, po; for liver levels, wild-type vs Oatp1a/1b^(−/−) mice / liver concentrations in OATP1B1^(tg) or OATP1B3^(tg) mice: single oral dose, letrozole 10 mg/kg or exemestane 20 mg/kg; for liver concentrations in OATP1B1^(tg) or OATP1B3^(tg) mice: relative to Oatp1a/1b^(−/−) and wild-type
Method: The analysis was conducted using a Vanquish UHPLC aligned with a Quantiva triple-stage quadrupole mass spectrometer (Thermo Fisher Scientific). An ACQUITY UPLC BEH C18 Column (130 Å, 1.7 μm, 2.1 mm × 50 mm, Waters Co.) protected by ACQUITY UPLC BEH Shield RP18 VanGuard Pre-column (130 Å, 1.7 μm, 2.1 mm × 5 mm, Waters Co.) was used for analyte separation. The injection volume of the sample was 10 μL. The temperature of the column was kept at 40°C, whereas the autosampler rack was kept at 4°C. The mobile phase consisted of solvent A, which was a solution of 0.1% acetic acid in LC/MS-grade water, and solvent B, which was a solution of 0.1% formic acid in acetonitrile. The total run time was 4.5 minutes. The following were the gradient conditions: 0.3 mL/minutes was the flow rate for the following intervals: 0 to 0.5 minutes, 30% B; 0.5 to 3.0 minutes, 30% to 95% B; 3.0 to 4.0 minutes, 95% B; and 4.001 to 4.5 minutes, 95% to 30% B. The vaporizer was adjusted to 360°C, and the ion transfer tube temperature was 340°C. The mass spectrometry assay was configured with a positive voltage of 3600 V delivered to the ESI capillary. The collision gas utilized was argon, with a pressure of 1.5 mTorr. The mass spectrometer was set up with the following optimized parameters: 1 arbitrary unit (Arb) for sweep gas, 5 Arb for auxiliary gas, and 25 Arb for sheath gas. […] The accuracy, expressed as a percent bias varied from −7.80% to 5.10%, whereas the inter-assay and intra-assay precisions ranged from 2.19% to 7.09% according to the results of assay validation tests. The lower limit of quantification was 0.4 ng/mL.
Letrozole was quantified using an LC/MS-MS method described previously ([14]). A Vanquish UHPLC and Quantiva triple-stage quadrupole mass spectrometer (Thermo Fisher Scientific) were used in the analysis. Analytes were separated chromatographically using a C18 AQUASIL guard cartridge (2.1 mm × 10 mm, 3 μm; Thermo Fisher Scientific) and an Accucore aQ column (50 mm × 2.1 mm, 2.6 μm). The temperature of the column was set at 40°C, whereas the autosampler was kept at 4°C. The mobile phase consisted of solvent A, which was a solution of 0.1% acetic acid in LC/MS-grade water, and solvent B, which was a solution of 0.1% formic acid in acetonitrile. A gradient elution method was employed for 5.0 minutes, with a flow rate of 0.4 mL/minutes. […] Injections were performed using 3 μL of the extracted samples. The mass spectrometer parameters were optimized and configured as follows: 25 Arb for sheath gas, 5 Arb for auxiliary gas, and 1 Arb for sweep gas. The temperature of the ion transfer tube and vaporizer was adjusted to 340°C and 360°C, respectively. Argon was used as the collision gas at a pressure of 1.5 mTorr. […] The lower limit of quantification was 5 ng/mL.
Female wild-type, Oatp1a/1b cluster-knockout mice [Oatp1a/1b^(−/−) mice] and Oatp1a/1b^(−/−) mice with transgenic hepatic expression of OATP1B1 [OATP1B1^(tg) mice] or OATP1B3 [OATP1B3^(tg) mice] were all on an FVB background (RRID: IMSR_T000141), and experimental groups were age- and weight-matched for each experiment. Female mice with a deficiency of all Cyp3a isoforms [Cyp3a^(−/−)] were similarly matched with FVB wild-type mice. All mice were bred in-house. Littermates of the same sex and genotype were housed in groups of maximally five animals in a temperature- and light-controlled environment (12-hour light/dark cycles) in cages lined with absorbent bedding. Mice were given free access to standard food and water.
For in vivo pharmacokinetic studies, mice were randomized into experimental groups of equal size.

[2] = test system: patients; details: randomized phase III, cited from earlier work
[3] = test system: Oatp1b2; test: CDCA-24G plasma biomarker of hepatic Oatp1b2 function in mice; type: in vivo; details: single oral letrozole 10 mg/kg, 2 hours
Method: A, The levels of CDCA-24G biomarker in plasma were measured via LC/MS-MS in wild-type and Cyp3a^(−/−) mice treated with a single oral administration of letrozole (10 mg/kg) or vehicle. […] Data are shown as mean ± SD. Two-sided, unpaired Student t tests were used to analyze the data and no multiple comparison adjustment was applied. **, P < 0.01 and ****, P < 0.0001 compared with the wild-type group; n = 9 to 10 per group.

[4] = test system: mice; test: Photobeam activity open field system (physical activity); type: in vivo
Method: An open-field photobeam activity system was used to monitor the motor activity of mice over a period of 12 hours after administration of letrozole ([27], [28]). Spontaneous physical/locomotor activity was assessed using an activity monitoring system consisting of a two-dimensional (X and Y axes) square frame that emits a grid of infrared beams (IR Actimeter and Actitrack software, Panlab, Harvard Apparatus). Animals were placed in a transparent enclosure inside the frame, and movement within the enclosure (general locomotor activity) was recorded as interruptions in the beams. During acute studies, mice were dosed with letrozole (0.5 mg/kg) orally at 5:00 pm and were tested individually for 12 hours during the active/dark phase of the light cycle (6:00 pm–6:00 am). Physical activity of the mice was similarly monitored at baseline and at the end of 15 days of the chronic treatment.

[5] = test system: mice; test: Histopathology of knee joints after chronic letrozole; type: in vivo; details: mice receiving multiple doses of letrozole (0.1 mg/kg/day, 15 days)
Method: At the end of the chronic letrozole treatment, hind limbs of three randomly selected mice per group were collected, peeled for skin, and preserved in 10% neutral buffered formaline at room temperature for at least 48 hours until tissue processing. Tissues from the hind limbs were routinely processed for histopathology on a Leica Peloris 3 Tissue Processor (Leica Biosystems), embedded in paraffin, sectioned at an approximate thickness of 4 to 5 μm, and batch stained with hematoxylin and eosin on a Leica ST5020 autostainer using a routine and quality-controlled protocol. Slides were evaluated and representative photomicrographs were taken by a board-certified veterinary pathologist using a Nikon Eclipse Ci-L Upright Microscope (Nikon Instruments, Inc.) with attached 18 megapixel Olympus SC180 microscope-mounted digital camera and cellSens imaging software (Olympus Life Science).

[6] = set-up: method as in earlier work; details: patients receiving continuous dosing regimens, prescribing information; cited from earlier work
[7] = test system: mice; test: Von Frey hair test (mechanical sensitivity); type: in vivo
Method: Von Frey filaments were used as a mechanical sensitivity measurement following administration of letrozole in both chronic and acute treatments, using a strategy developed previously ([24]). After ensuring that the animal is acquainted with the environment, joint pain was directly evaluated by a hind limb withdrawal response to mechanical stimulation applied by the filaments. […] After a single dose, mechanical sensitivity was tested with the Von Frey filaments at 0, 1, 3, 6, and 24 hours after drug administration ([25], [26]). During the chronic treatment of letrozole (0.1 mg/kg/day for 15 days), mechanical sensitivity was measured at baseline, at the end of week 1, and the end of week 2. Analysts were blinded to the composition of the treatment groups.

[8] = OATP1B1^(tg) mice, chronic letrozole 0.1 mg/kg/day for 15 days, 12 hours
[9] = OATP1B1^(tg) mice, single oral letrozole 0.5 mg/kg, 12 hours
[10] = OATP1B3^(tg) mice, chronic letrozole 0.1 mg/kg/day for 15 days, 12 hours
[11] = OATP1B3^(tg) mice, single oral letrozole 0.5 mg/kg, 12 hours
[12] = Oatp1a/1b^(−/−) mice, chronic letrozole 0.1 mg/kg/day for 15 days, 12 hours
[13] = Oatp1a/1b^(−/−) mice, single oral letrozole 0.5 mg/kg, 12 hours
[14] = wild-type mice, chronic letrozole 0.1 mg/kg/day for 15 days, 12 hours
[15] = wild-type mice, letrozole 0.5 mg/kg, 12 h, Table S4
[16] = wild-type mice, single oral letrozole 0.5 mg/kg, 12 hours
[17] = wild-type mice, single oral letrozole 0.5 mg/kg, 12 hours, listed as letrozole
[18] = 2.5 mg daily for 5 years vs intermittent regimen

AUC fold change vs. WT ([1]; OATP1B3^(tg) vs wild-type mice, exemestane 20 mg/kg oral): 2.27 (1.49–3.44)
AUC fold change vs. WT ([1]; Oatp1a/1b^(−/−) vs wild-type mice, exemestane 20 mg/kg oral): 2.25 (1.60–3.18)
AUC(0-t) ([1]; 20 mg/kg, AUC0–6h, OATP1B3^(tg) female mice, exemestane 20 mg/kg oral, mean with SEM): 294 ng·h/mL
AUC(0-t) ([1]; 20 mg/kg, AUC0–6h, Oatp1a/1b^(−/−) female mice, exemestane 20 mg/kg oral, mean with SEM): 292 ng·h/mL
AUC(0-t) ([1]; 20 mg/kg, AUC0–6h, wild-type female mice, exemestane 20 mg/kg oral, mean with SEM): 130 ng·h/mL
Cmax ([1]; 20 mg/kg, OATP1B3^(tg) female mice, exemestane 20 mg/kg oral, mean with SEM): 152 ng/mL
Cmax ([1]; 20 mg/kg, Oatp1a/1b^(−/−) female mice, exemestane 20 mg/kg oral, mean with SEM): 159 ng/mL
Cmax ([1]; 20 mg/kg, wild-type female mice, exemestane 20 mg/kg oral, mean with SEM): 94 ng/mL
liver levels, wild-type vs Oatp1a/1b^(−/−) mice [1]: higher levels
liver concentrations in OATP1B1^(tg) or OATP1B3^(tg) mice [1]: partially restored
Compound: C=C1C[C@@H]2[C@H](CC[C@]3(C)C(=O)CC[C@@H]23)[C@@]2(C)C=CC(=O)C=C12 [Exemestane]
suppression of estrogen levels and reduction of breast cancer tissue proliferation, intermittent vs standard daily dosing ([2]; 25 mg three times a week vs 25 mg daily): non-inferior

Activ. (global activity) [4, 8]: 28,800
Dist. (total distance traveled) [4, 8]: 380 m
Locom. (locomotion) [4, 8]: 25,909
MF (%) (moving fast) [4, 8]: 6.22%
MS (%) (moving slow) [4, 8]: 11.58%
RT (%) (resting time % of total duration) [4, 8]: 82.19%
Res.T. (resting time) [4, 8]: 9.86 h
Stere. (stereotypes) [4, 8]: 2,892
Activ. (global activity) [4, 9]: 31,678
Dist. (total distance traveled) [4, 9]: 377 m
Locom. (locomotion) [4, 9]: 28,964
MF (%) (moving fast) [4, 9]: 6.60%
MS (%) (moving slow) [4, 9]: 11.08%
RT (%) (resting time % of total duration) [4, 9]: 82.34%
Res.T. (resting time) [4, 9]: 9.88 h
Stere. (stereotypes) [4, 9]: 2,713
Activ. (global activity) [4, 10]: 29,841
Dist. (total distance traveled) [4, 10]: 373 m
Locom. (locomotion) [4, 10]: 27,036
MF (%) (moving fast) [4, 10]: 6.28%
MS (%) (moving slow) [4, 10]: 12.01%
RT (%) (resting time % of total duration) [4, 10]: 81.71%
Res.T. (resting time) [4, 10]: 9.80 h
Stere. (stereotypes) [4, 10]: 2,804
Activ. (global activity) [4, 11]: 27,095
Dist. (total distance traveled) [4, 11]: 340 m
Locom. (locomotion) [4, 11]: 24,448
MF (%) (moving fast) [4, 11]: 5.72%
MS (%) (moving slow) [4, 11]: 11.06%
RT (%) (resting time % of total duration) [4, 11]: 83.22%
Res.T. (resting time) [4, 11]: 9.98 h
Stere. (stereotypes) [4, 11]: 2,647
Activ. (global activity) [4, 12]: 26,637
Dist. (total distance traveled) [4, 12]: 316 m
Locom. (locomotion) [4, 12]: 24,065
MF (%) (moving fast) [4, 12]: 5.23%
MS (%) (moving slow) [4, 12]: 11.23* %
RT (%) (resting time % of total duration) [4, 12]: 83.55* %
Res.T. (resting time) [4, 12]: 10.0* hours
Stere. (stereotypes) [4, 12]: 2,572
Activ. (global activity) [4, 13]: 26,674
Dist. (total distance traveled) [4, 13]: 286 m
Locom. (locomotion) [4, 13]: 24,494
MF (%) (moving fast) [4, 13]: 4.64%
MS (%) (moving slow) [4, 13]: 10.40%
RT (%) (resting time % of total duration) [4, 13]: 84.96%
Res.T. (resting time) [4, 13]: 10.2 h
Stere. (stereotypes) [4, 13]: 2,180*
Activ. (global activity) [4, 14]: 30,580
Dist. (total distance traveled) [4, 14]: 383 m
Locom. (locomotion) [4, 14]: 27,528
MF (%) (moving fast) [4, 14]: 6.32%
MS (%) (moving slow) [4, 14]: 13.30%
RT (%) (resting time % of total duration) [4, 14]: 80.34%
Res.T. (resting time) [4, 14]: 9.64 h
Stere. (stereotypes) [4, 14]: 3,052
Dist. (total distance traveled) [4, 15]: 512 m
Res.T. (resting time) [4, 15]: 9.06 h
Activ. (global activity) [4, 16]: 41163
Dist. (total distance traveled) [4, 16]: 512 m
Locom. (locomotion) [4, 16]: 37261
MF (%) (moving fast) [4, 16]: 8.90%
MS (%) (moving slow) [4, 16]: 15.53%
RT (%) (resting time % of total duration) [4, 16]: 75.55%
Res.T. (resting time) [4, 16]: 9.06 h
Stere. (stereotypes) [4, 16]: 3902
Activ. (global activity) [4, 17]: 41,163
Locom. (locomotion) [4, 17]: 37,261
Stere. (stereotypes) [4, 17]: 3,902
AUC fold change vs. WT ([1]; Cyp3a^(−/−) vs wild-type mice, letrozole 10 mg/kg oral): 1.59 (1.34–1.90)
AUC fold change vs. WT ([1]; OATP1B1^(tg) vs wild-type mice, letrozole 10 mg/kg oral): 1.29 (0.94–1.78)
AUC fold change vs. WT ([1]; OATP1B3^(tg) vs wild-type mice, letrozole 10 mg/kg oral): 1.27 (0.83–1.95)
AUC fold change vs. WT ([1]; Oatp1a/1b^(−/−) vs wild-type mice, letrozole 10 mg/kg oral): 1.3 (0.92–1.86)
AUC(0-t) ([1]; 10 mg/kg, AUC0–6h, OATP1B1^(tg) female mice, letrozole 10 mg/kg oral, mean with SEM): 33000 ng·h/mL
AUC(0-t) ([1]; 10 mg/kg, AUC0–6h, OATP1B3^(tg) female mice, letrozole 10 mg/kg oral, mean with SEM): 32400 ng·h/mL
AUC(0-t) ([1]; 10 mg/kg, AUC0–6h, Oatp1a/1b^(−/−) female mice, letrozole 10 mg/kg oral, mean with SEM): 33300 ng·h/mL
AUC(0-t) ([1]; 10 mg/kg, AUC0–6h, wild-type female mice, letrozole 10 mg/kg oral, mean with SEM): 25500 ng·h/mL
AUC(0-t) ([1]; 10 mg/kg, AUC0–24h, Cyp3a^(−/−) female mice, letrozole 10 mg/kg oral single dose, mean ± SEM): 141000 ng·h/mL
AUC(0-t) ([1]; 10 mg/kg, AUC0–24h, wild-type female mice, letrozole 10 mg/kg oral single dose, mean ± SEM): 88700 ng·h/mL
Cmax ([1]; 10 mg/kg, Cyp3a^(−/−) female mice, letrozole 10 mg/kg oral single dose, mean ± SEM): 6820 ng/mL
Cmax ([1]; 10 mg/kg, OATP1B1^(tg) female mice, letrozole 10 mg/kg oral, mean with SEM): 6550 ng/mL
Cmax ([1]; 10 mg/kg, OATP1B3^(tg) female mice, letrozole 10 mg/kg oral, mean with SEM): 6670 ng/mL
Cmax ([1]; 10 mg/kg, Oatp1a/1b^(−/−) female mice, letrozole 10 mg/kg oral, mean with SEM): 6750 ng/mL
Cmax ([1]; 10 mg/kg, wild-type female mice, letrozole 10 mg/kg oral single dose, Table 1 study, mean ± SEM): 5800 ng/mL
Cmax ([1]; 10 mg/kg, wild-type female mice, letrozole 10 mg/kg oral, Table 2 study, mean with SEM): 5180 ng/mL
liver levels, wild-type vs Oatp1a/1b^(−/−) mice [1]: higher levels
liver concentrations in OATP1B1^(tg) or OATP1B3^(tg) mice [1]: partially restored
time of maximal mechanical sensitivity after drug administration ([7]; wild-type mice, single dose of letrozole): 6 h
Compound: N#Cc1ccc(C(c2ccc(C#N)cc2)n2cncn2)cc1 [Letrozole]
increase of CDCA-24G concentration in plasma vs vehicle control ([3]; Cyp3a^(−/−) mice): 2.17 fold
increase of CDCA-24G concentration in plasma vs vehicle control ([3]; wild-type mice): 1.62 fold
lesions in knee joints (histopathologic examination) [5]: synovial hyperplasia, synovitis, and patellar tendinitis
accumulation in plasma [6]: does not substantially accumulate
7-year disease-free survival, intermittent vs continuous [2, 18]: comparable
incidence of arthralgia, intermittent vs continuous dosing [2, 18]: only slightly decreased
arthralgia-related changes in mechanical sensitivity ([7]; Oatp1a/1b^(−/−) mice vs humanized transgenic and wild-type mice, letrozole 0.1 mg/kg daily for 15 days): worst arthralgia-related phenotypic changes in mechanical sensitivity
mechanical allodynia (paw withdrawal threshold) ([7]; wild-type mice, single dose of letrozole 0.1-0.5 mg/kg): reversible, concentration- and time-dependent allodynia
